These results are taken from patent US20160135464A1, “PESTICIDAL COMPOSITIONS AND PROCESSES RELATED THERETO” (Dow AgroSciences LLC, priority 2014, published 2016).

Data set [1] relates to Beet Armyworm (BAW) (Spodoptera exigua). Put plainly: Bioassay on beet armyworm (BAW), 128-well diet tray assay, percent mortality. The following applies: Spodoptera exigua, 50 μg/cm^2. Type of data set: in vivo. How it is done: (§1) Certain molecules disclosed in this document were tested against BAW and CEW using procedures described in the following examples. In the reporting of the results, the “BAW & CEW Rating Table” was used (See Table Section).
Bioassays on BAW (Spodoptera exigua)
Bioassays on BAW were conducted using a 128-well diet tray assay. One to five second instar BAW larvae were placed in each well (3 mL) of the diet tray that had been previously filled with 1 mL of artificial diet to which 50 μg/cm^2 of the test compound (dissolved in 50 μL of 90:10 acetone-water mixture) had been applied (to each of eight wells) and then allowed to dry. Trays were covered with a clear self-adhesive cover and held at 25° C., 14:10 light-dark for five to seven days. Percent mortality was recorded for the larvae in each well; activity in the eight wells was then averaged. The results are indicated in the table entitled “Table 5: Biological Results” (See Table Section).

The subject of data set [2] is Green Peach Aphid (GPA) (Myzus persicae). Put plainly: Bioassay on green peach aphid (GPA), foliar spray on cabbage seedlings, corrected % control. It counts as in vivo. The following applies: 72 h, read-out: % Mortality GPA 200 ppm. How it is done: Certain molecules disclosed in this document were tested against GPA using procedures described in the following example. In the reporting of the results, the “GPA Rating Table” was used (See Table Section).
Cabbage seedlings grown in 3-inch pots, with 2-3 small (3-5 cm) true leaves, were used as test substrate. The seedlings were infested with 20-50 GPA (wingless adult and nymph stages) one day prior to chemical application. Four pots with individual seedlings were used for each treatment. Test compounds (2 mg) were dissolved in 2 mL of acetone/methanol (1:1) solvent, forming stock solutions of 1000 ppm test compound. […] A hand-held aspirator-type sprayer was used for spraying a solution to both sides of […] leaves until runoff. Reference plants (solvent check) were sprayed with the diluent only containing 20% by volume of acetone/methanol (1:1) solvent. Treated plants were held in a holding room for three days at approximately 25° C. and ambient relative humidity (RH) prior to grading. Evaluation was conducted by counting the number of live aphids per plant under a microscope.
Corrected % Control=100*(X−Y)/X • where • X=No. of live aphids on solvent check plants and • Y=No. of live aphids on treated plants
The results are indicated in the table entitled “Table 5: Biological Results” (See Table Section).

Data set [3] concerns Corn Earworm (CEW) (Helicoverpa zea). The experiment in a line: Bioassay on corn earworm (CEW), 128-well diet tray assay, percent mortality. It counts as in vivo. The settings on record: Helicoverpa zea, 50 μg/cm^2. The procedure: as §1
Bioassays on CEW (Helicoverpa zea)
Bioassays on CEW were conducted using a 128-well diet tray assay. One to five second instar CEW larvae were placed in each well (3 mL) of the diet tray that had been previously filled with 1 mL of artificial diet to which 50 μg/cm^2 of the test compound (dissolved in 50 μL of 90:10 acetone-water mixture) had been applied (to each of eight wells) and then allowed to dry. Trays were covered with a clear self-adhesive cover and held at 25° C., 14:10 light-dark for five to seven days. Percent mortality was recorded for the larvae in each well; activity in the eight wells was then averaged. The results are indicated in the table entitled “Table 5: Biological Results” (See Table Section).

`CC(C)c1cc(F)c(F)cc1NC(=S)NN` [Compound I-54] displayed a melting point of 169 to 170 °C.

Consider `CC(C)c1ccccc1N1/C(=N/N=C/c2ccc(-c3ncn(-c4ccc(OC(F)(F)F)cc4)n3)cc2)SCC1(C)O` (stereo not shown) [Compound 242C], for which the pest or weed control at 50 µg/cm2, 50 µg/cm2 in data set [1] and in data set [3] was 50 to 100% each time. For the same compound, in data set [2], the pest or weed control at 200 ppm lay within 0 to 80%.

Take `CCc1cccc(C)c1N1CCCS/C1=N\N=C\c1ccc(-c2ncn(-c3ccc(OC(F)(F)F)cc3)n2)cc1` [Compound 180C]: the pest or weed control at 50 µg/cm2, 50 µg/cm2 in data set [1] and in data set [3] was 50 to 100% each time. The pest or weed control at 200 ppm in data set [2] lay within 0 to 80%.

For the compound `CC(C)c1cc(F)ccc1NC(=S)NN` [Compound I-50], the melting point lay within 163 to 167 °C.

`CC(C)c1cc(F)c(F)cc1NC(=S)N/N=C/c1ccc(-c2ncn(-c3ccc(OC(F)(F)F)cc3)n2)cc1` [Compound I-55] returned a melting point of 217 to 221 °C.

Take `CC(C)c1ccccc1N1/C(=N/N=C/c2ccc(-c3ncn(-c4ccc(OC(F)(F)C(F)(F)F)cc4)n3)cc2)SCC1(C)O` (stereo not shown) [Compound 262C]: the pest or weed control at 50 µg/cm2, 50 µg/cm2 in data set [1] and in data set [3] was 50 to 100% in each case. In addition, in data set [2], the pest or weed control at 200 ppm was 0 to 80%.

On to `CC(C)c1cccc(F)c1N1/C(=N/N=C/c2ccc(-c3ncn(-c4ccc(OC(F)(F)F)cc4)n3)cc2)SCC1(C)O` (stereo not shown) [Compound 250C], for which the pest or weed control at 50 µg/cm2, 50 µg/cm2 in data set [1] and in data set [3] was 50 to 100% throughout. For the same compound, the pest or weed control at 200 ppm in data set [2] was 0 to 80%.

`COc1ccc(N2/C(=N/N=C/c3ccc(-c4ncn(-c5ccc(OC(F)(F)F)cc5)n4)cc3)SCC2(C)O)c(C)c1` (stereo not shown) [Compound 245C]: the pest or weed control at 50 µg/cm2, 50 µg/cm2 in data set [1] and in data set [3] was 50 to 100% each time. Moreover, the pest or weed control at 200 ppm in data set [2] is 0 to 80%.

Consider `Cc1ccc(C(C)C)c(NC(=S)NN)c1` [Compound I-46], for which the melting point lay within 167 to 169 °C.

As for `Cc1cccc(NC(=S)N/N=C/c2ccc(-c3ncn(-c4ccc(OC(F)(F)F)cc4)n3)cc2)c1C(C)C` [Compound I-43], the melting point fell in the range of 219 to 222 °C.

Regarding `CCC(C)c1ccccc1N1/C(=N/N=C/c2ccc(-c3ncn(-c4ccc(OC(F)(F)F)cc4)n3)cc2)SCC1(O)C(F)(F)F` (stereo not shown) [Compound 247C], the pest or weed control at 50 µg/cm2, 50 µg/cm2 in data set [1] and in data set [3] was 50 to 100% throughout.

With `CCN(CC)c1ccc(-c2cs/c(=N\N=Cc3ccc(-c4ncn(-c5ccc(OC(F)(F)F)cc5)n4)cc3)n2-c2c(C)cccc2C)cc1` [Compound 74C, 4-((2Z)-3-(2,6-dimethylphenyl)-2-((4-(1-(4-(trifluoromethoxy)phenyl)-1H-1,2,4-triazol-3-yl)benzylidene)hydrazono)-2,3-dihydrothiazol-4-yl)-N,N-diethylaniline], the pest or weed control at 50 µg/cm2, 50 µg/cm2 in data set [1] and in data set [3] was 50 to 100% in each case.

Regarding `CC1(O)CS/C(=N\N=C\c2ccc(-c3ncn(-c4ccc(OC(F)(F)F)cc4)n3)cc2)N1c1c(F)cccc1F` (stereo not shown) [Compound 240C], the pest or weed control at 50 µg/cm2, 50 µg/cm2 in data set [1] and in data set [3] was 50 to 100% each time.

For `Cc1ccccc1N1/C(=N/N=C/c2ccc(-c3ncn(-c4ccc(OC(F)(F)F)cc4)n3)cc2)SCC1(C)O` (stereo not shown) [Compound 248C], the pest or weed control at 50 µg/cm2, 50 µg/cm2 in data set [1] and in data set [3] was 50 to 100% in each case. Besides, the pest or weed control at 200 ppm in data set [2] fell in the range of 0 to 80%.

`COc1cc(C)c(/N=C(/N/N=C/c2ccc(-c3ncn(-c4ccc(OC(F)(F)C(F)(F)F)cc4)n3)cc2)SCC(=O)O)c(C)c1` [Compound 50C]: the pest or weed control at 50 µg/cm2, 50 µg/cm2 in data set [1] and in data set [3] was 50 to 100% throughout.

`CC1(O)CS/C(=N\c2c(Cl)cccc2C(F)(F)F)N1/N=C/c1ccc(-c2ncn(-c3ccc(OC(F)(F)F)cc3)n2)cc1` (stereo not shown) [Compound 241C, (Z)-2-((2-chloro-6-(trifluoromethyl)phenyl)imino)-4-methyl-3-((E)-(4-(1-(4-(trifluoromethoxy)phenyl)-1H-1,2,4-triazol-3-yl)benzylidene)amino)thiazolidin-4-ol]: the pest or weed control at 50 µg/cm2, 50 µg/cm2 in data set [1] and in data set [3] was 50 to 100% each time.

Consider `CCc1ccccc1N1/C(=N/N=C/c2ccc(-c3ncn(-c4ccc(OC(F)(F)F)cc4)n3)cc2)SCC1(C)O` (stereo not shown) [Compound 254C], for which the pest or weed control at 50 µg/cm2, 50 µg/cm2 in data set [1] and in data set [3] was 50 to 100% each time. For the same compound, in data set [2], the pest or weed control at 200 ppm was in the range of 0 to 80%.

`Cc1ccc(N2/C(=N/N=C/c3ccc(-c4ncn(-c5ccc(OC(F)(F)F)cc5)n4)cc3)SCC2(C)O)c(C(C)C)c1` (stereo not shown) [Compound 251C]: the pest or weed control at 50 µg/cm2, 50 µg/cm2 in data set [1] and in data set [3] was 50 to 100% each time. For the same compound, the pest or weed control at 200 ppm in data set [2] lay in the range of 0 to 80%.

As for `CC(C)c1cc(F)ccc1N1/C(=N/N=C/c2ccc(-c3ncn(-c4ccc(OC(F)(F)F)cc4)n3)cc2)SCC1(C)O` (stereo not shown) [Compound 258C], the pest or weed control at 50 µg/cm2, 50 µg/cm2 in data set [1] and in data set [3] was 50 to 100% each time.

As for `Cc1ccccc1-n1c(C)cs/c1=N\N=C\c1ccc(-c2ncn(-c3ccc(OC(F)(F)F)cc3)n2)cc1` [Compound 173C], the pest or weed control at 50 µg/cm2, 50 µg/cm2 in data set [1] and in data set [3] was 50 to 100% throughout.

As for `CC(C)c1ccccc1N1/C(=N/N=C/c2ccc(-c3ncn(-c4ccc(C(F)(C(F)(F)F)C(F)(F)F)cc4)n3)cc2)SCC1(C)O` (stereo not shown) [Compound 260C], the pest or weed control at 50 µg/cm2, 50 µg/cm2 in data set [1] and in data set [3] was 50 to 100% each time.

For `CC1S/C(=N\N=C\c2ccc(-c3ncn(-c4ccc(OC(F)(F)F)cc4)n3)cc2)N(c2c(F)cccc2Cl)C1=O` (stereo not shown) [Compound 130C], the pest or weed control at 50 µg/cm2, 50 µg/cm2 in data set [1] and in data set [3] was 50 to 100% each time.

Turning to `CC(C)c1cc(F)c(F)cc1N1/C(=N/N=C/c2ccc(-c3ncn(-c4ccc(OC(F)(F)F)cc4)n3)cc2)SCC1(C)O` (stereo not shown) [Compound 259C], the pest or weed control at 50 µg/cm2, 50 µg/cm2 in data set [1] and in data set [3] was 50 to 100% throughout.

In the case of `CCC(C)c1ccccc1N1/C(=N/N=C/c2ccc(-c3ncn(-c4ccc(OC(F)(F)F)cc4)n3)cc2)SCC1(C)O` (stereo not shown) [Compound 243C], the pest or weed control at 50 µg/cm2, 50 µg/cm2 in data set [1] and in data set [3] was 50 to 100% throughout. Moreover, the pest or weed control at 200 ppm in data set [2] lay in the range of 0 to 80%.

For `CCCc1ccccc1N1/C(=N/N=C/c2ccc(-c3ncn(-c4ccc(OC(F)(F)F)cc4)n3)cc2)SCC1(C)O` (stereo not shown) [Compound 256C], the pest or weed control at 50 µg/cm2, 50 µg/cm2 in data set [1] and in data set [3] was 50 to 100% throughout. The pest or weed control at 200 ppm in data set [2] was 0 to 80%.

Regarding `CC1(O)CS/C(=N\N=C\c2ccc(-c3ncn(-c4ccc(OC(F)(F)F)cc4)n3)cc2)N1c1ccccc1C1CCCC1` (stereo not shown) [Compound 249C], the pest or weed control at 50 µg/cm2, 50 µg/cm2 in data set [1] and in data set [3] was 50 to 100% throughout.

For the compound `FC(F)(F)Oc1ccc(-n2cnc(-c3ccc(/C=N/NC(=S)Nc4ccccc4C4CCCC4)cc3)n2)cc1` [Compound I-35], the melting point is 213 to 216 °C.

With `CC(C)c1ccccc1N1/C(=N/N=C/c2ccc(-c3ncn(-c4ccc(OC(F)(F)F)cc4)n3)cc2)SCC1(O)c1ccccc1C(F)(F)F` (stereo not shown) [Compound 263C], the pest or weed control at 50 µg/cm2, 50 µg/cm2 in data set [1] and in data set [3] was 50 to 100% in each case. For the same compound, the pest or weed control at 200 ppm in data set [2] was 0 to 80%.

Regarding `Cc1cc(C)c(N2C(=O)CS/C2=N\N=C\c2ccc(-c3ncn(-c4ccc(OC(F)(F)F)cc4)n3)cc2)c(C)c1` [Compound 72C], the pest or weed control at 50 µg/cm2, 50 µg/cm2 in data set [1] and in data set [3] was 50 to 100% in each case. The pest or weed control at 200 ppm in data set [2] is 0 to 80%.
